Results reported in patent publication US8192962B2, “Processes for detecting toxic substances” (Daikin Industries, Ltd., priority 2001, dated 2012).

Tested on: Metabolism protein genes
Experiment: DNA chip mRNA expression in yeast, metabolism protein genes (Table 7)
Type: cell-based, Saccharomyces cerevisiae S288C
Experimental: Yeast (Saccharomyces cerevisiae S288C (α SUC2mal mel gap2 CUP1)) were incubated at 25° C. on YPD medium (yeast extract 1%, polypepton 2%, glucose 2%). One of toxic chemical substances was added to the cells at logarithmic growth phase, and the cells were further incubated for two hours. Cells were cultured without any chemical substance in the same condition, and were used as control. Concentrations of the chemical substances were defined to inhibit the growth of the yeast but not lead to death.
After completion of the incubation, the culture was centrifuged to collect the cells. To the cells, sodium acetate buffer (50 mM sodium acetate, 10 mM EDTA, 1% SDS) was added, and the mixture was shaken at 65° C. for five minutes, followed by returning to room temperature, and obtaining the supernatant, of which the procedures were repeated two times. To the supernatant, ½ amount of a solution of phenol/chloroform was added, and the mixture was centrifuged to give a supernatant, which was added with an equal amount of chloroform, and the mixture was centrifuged to give a supernatant. To the supernatant, an equal amount of isopropanol containing 0.3 M sodium acetate was added, and the mixture was allowed to stand at room temperature for 30 minutes, after which the mixture was centrifuged to give a sediment of the whole RNAs. Seventy % ethanol was added to the sediment, and the mixture was again centrifuged to give a sediment, which was then dried and dissolved in water. mRNA was isolated from the whole RNAs as followings. In view of the fact that a poly A chain is attached to the 3′ terminus of mRNA, a polynucleotide having a poly T structure which was immobilized on the surface of latex beads was used to trap the mRNA, and then the mRNA was washed and eluted with spine column (Oligotex-dT30<Super>mRNA Purification Kit, Takara). Reverse transcription of the mRNA was conducted with a reverse transcriptase (Super Script II Reverse Transcriptase; catalogue No. 18064-014, GibcoBRL) using fluorescence-labeled nucleotides to give cDNAs that were introduced with Cy3-dUTP or Cy5-dUTP during the reverse transcription.
The labeled cDNAs were dissolved in TE buffer (10mM Tris-HCl/1 mM EDTA, pH8.0), and the solution was dropped on the DNA chip containing the whole genes of yeast (DNA Chip Research Inc. Japan) so that the cDNAs were hybridized on the DNA chip at 65° C. for over 12 hours. The fluoresces intensity of the DNA chip was read with a scanner, and the ratio relative to the fluorescence intensity resulting from the absence of chemical substance was estimated as the following, which is shown in Tables 1 to 9: […]

Cl[C@H]1[C@H](Cl)[C@@H](Cl)[C@@H](Cl)[C@H](Cl)[C@H]1Cl [(7), γ-hexachlorocyclohexane]
The level of expressed mRNA in the presence of chemical substance/The level of expressed mRNA in the absence of chemical substance (yeast gene YKL035W): 0.6
level of expressed mRNA in the presence/in the absence of chemical substance (yeast gene YKL060C): 1.2
The level of expressed mRNA in the presence of chemical substance/The level of expressed mRNA in the absence of chemical substance (yeast gene YKL091C): 1.9
The level of expressed mRNA in the presence of chemical substance/The level of expressed mRNA in the absence of chemical substance (yeast gene YKL104C): 2.3
level of expressed mRNA in the presence/in the absence of chemical substance (yeast gene YKL148C): 0.6
The level of expressed mRNA in the presence of chemical substance/The level of expressed mRNA in the absence of chemical substance (yeast gene YKL152C): 1.5
level of expressed mRNA in the presence/in the absence of chemical substance (yeast gene YKL157W): 1.9
The level of expressed mRNA in the presence of chemical substance/The level of expressed mRNA in the absence of chemical substance (yeast gene YKL213C): 1.0
The level of expressed mRNA in the presence of chemical substance/The level of expressed mRNA in the absence of chemical substance (yeast gene YKL215C): 1.1
level of expressed mRNA in the presence/in the absence of chemical substance (yeast gene YKR034W): 0.7
The level of expressed mRNA in the presence of chemical substance/The level of expressed mRNA in the absence of chemical substance (yeast gene YKR039W): 1.0
The level of expressed mRNA in the presence of chemical substance/The level of expressed mRNA in the absence of chemical substance (yeast gene YLL058W): 1.5
level of expressed mRNA in the presence/in the absence of chemical substance (yeast gene YLR006C): 1.1
level of expressed mRNA in the presence/in the absence of chemical substance (yeast gene YLR044C): 1.3
level of expressed mRNA in the presence/in the absence of chemical substance (yeast gene YLR056W): 0.8
level of expressed mRNA in the presence/in the absence of chemical substance (yeast gene YLR058C): 0.5
level of expressed mRNA in the presence/in the absence of chemical substance (yeast gene YLR081W): 0.7
level of expressed mRNA in the presence/in the absence of chemical substance (yeast gene YLR089C): 1.6
The level of expressed mRNA in the presence of chemical substance/The level of expressed mRNA in the absence of chemical substance (yeast gene YLR180W): 0.6
The level of expressed mRNA in the presence of chemical substance/The level of expressed mRNA in the absence of chemical substance (yeast gene YLR273C): 1.2
level of expressed mRNA in the presence/in the absence of chemical substance (yeast gene YLR284C): 0.8
The level of expressed mRNA in the presence of chemical substance/The level of expressed mRNA in the absence of chemical substance (yeast gene YLR299W): 0.8
The level of expressed mRNA in the presence of chemical substance/The level of expressed mRNA in the absence of chemical substance (yeast gene YLR300W): 0.5
level of expressed mRNA in the presence/in the absence of chemical substance (yeast gene YLR304C): 0.6
The level of expressed mRNA in the presence of chemical substance/The level of expressed mRNA in the absence of chemical substance (yeast gene YLR307W): 1.5
The level of expressed mRNA in the presence of chemical substance/The level of expressed mRNA in the absence of chemical substance (yeast gene YLR348C): 0.9
level of expressed mRNA in the presence/in the absence of chemical substance (yeast gene YLR354C): 1.1
level of expressed mRNA in the presence/in the absence of chemical substance (yeast gene YLR372W): 0.2
level of expressed mRNA in the presence/in the absence of chemical substance (yeast gene YML022W): 0.6
The level of expressed mRNA in the presence of chemical substance/The level of expressed mRNA in the absence of chemical substance (yeast gene YML054C): 1.2
The level of expressed mRNA in the presence of chemical substance/The level of expressed mRNA in the absence of chemical substance (yeast gene YML070W): 3.1
The level of expressed mRNA in the presence of chemical substance/The level of expressed mRNA in the absence of chemical substance (yeast gene YML100W): 2.2
The level of expressed mRNA in the presence of chemical substance/The level of expressed mRNA in the absence of chemical substance (yeast gene YMR008C): 0.9
level of expressed mRNA in the presence/in the absence of chemical substance (yeast gene YMR011W): 0.8
level of expressed mRNA in the presence/in the absence of chemical substance (yeast gene YMR015C): 0.4
The level of expressed mRNA in the presence of chemical substance/The level of expressed mRNA in the absence of chemical substance (yeast gene YMR020W): 2.7
level of expressed mRNA in the presence/in the absence of chemical substance (yeast gene YMR083W): 1.7
The level of expressed mRNA in the presence of chemical substance/The level of expressed mRNA in the absence of chemical substance (yeast gene YMR105C): 2.8
The level of expressed mRNA in the presence of chemical substance/The level of expressed mRNA in the absence of chemical substance (yeast gene YMR189W): 0.8
level of expressed mRNA in the presence/in the absence of chemical substance (yeast gene YMR205C): 0.9
level of expressed mRNA in the presence/in the absence of chemical substance (yeast gene YMR261C): 1.3
The level of expressed mRNA in the presence of chemical substance/The level of expressed mRNA in the absence of chemical substance (yeast gene YMR271C): 3.4
The level of expressed mRNA in the presence of chemical substance/The level of expressed mRNA in the absence of chemical substance (yeast gene YMR296C): 0.6
level of expressed mRNA in the presence/in the absence of chemical substance (yeast gene YMR323W): 1.1
The level of expressed mRNA in the presence of chemical substance/The level of expressed mRNA in the absence of chemical substance (yeast gene YNL012W): 2.0
level of expressed mRNA in the presence/in the absence of chemical substance (yeast gene YNL025C): 1.2
The level of expressed mRNA in the presence of chemical substance/The level of expressed mRNA in the absence of chemical substance (yeast gene YNL045W): 1.8
The level of expressed mRNA in the presence of chemical substance/The level of expressed mRNA in the absence of chemical substance (yeast gene YNL104C): 0.6
The level of expressed mRNA in the presence of chemical substance/The level of expressed mRNA in the absence of chemical substance (yeast gene YNL106C): 0.9
The level of expressed mRNA in the presence of chemical substance/The level of expressed mRNA in the absence of chemical substance (yeast gene YNL169C): 0.7
level of expressed mRNA in the presence/in the absence of chemical substance (yeast gene YNL192W): 1.0
The level of expressed mRNA in the presence of chemical substance/The level of expressed mRNA in the absence of chemical substance (yeast gene YNL231C): 2.5
The level of expressed mRNA in the presence of chemical substance/The level of expressed mRNA in the absence of chemical substance (yeast gene YNL322C): 0.9
The level of expressed mRNA in the presence of chemical substance/The level of expressed mRNA in the absence of chemical substance (yeast gene YNL331C): 1.9
The level of expressed mRNA in the presence of chemical substance/The level of expressed mRNA in the absence of chemical substance (yeast gene YNL332W): 2.1
The level of expressed mRNA in the presence of chemical substance/The level of expressed mRNA in the absence of chemical substance (yeast gene YNR019W): 0.8
The level of expressed mRNA in the presence of chemical substance/The level of expressed mRNA in the absence of chemical substance (yeast gene YNR033W): 1.2
The level of expressed mRNA in the presence of chemical substance/The level of expressed mRNA in the absence of chemical substance (yeast gene YNR059W): 1.6
The level of expressed mRNA in the presence of chemical substance/The level of expressed mRNA in the absence of chemical substance (yeast gene YOL058W): 0.4
level of expressed mRNA in the presence/in the absence of chemical substance (yeast gene YOL086C): 1.9
level of expressed mRNA in the presence/in the absence of chemical substance (yeast gene YOL108C): 1.1
level of expressed mRNA in the presence/in the absence of chemical substance (yeast gene YOL116W): 1.5
The level of expressed mRNA in the presence of chemical substance/The level of expressed mRNA in the absence of chemical substance (yeast gene YOL126C): 1.4
The level of expressed mRNA in the presence of chemical substance/The level of expressed mRNA in the absence of chemical substance (yeast gene YOL153C): 3.3
level of expressed mRNA in the presence/in the absence of chemical substance (yeast gene YOL156W): 1.0
The level of expressed mRNA in the presence of chemical substance/The level of expressed mRNA in the absence of chemical substance (yeast gene YOL165C): 1.4
level of expressed mRNA in the presence/in the absence of chemical substance (yeast gene YOR002W): 1.0
level of expressed mRNA in the presence/in the absence of chemical substance (yeast gene YOR085W): 0.6
The level of expressed mRNA in the presence of chemical substance/The level of expressed mRNA in the absence of chemical substance (yeast gene YOR099W): 1.0
level of expressed mRNA in the presence/in the absence of chemical substance (yeast gene YOR103C): 1.2
level of expressed mRNA in the presence/in the absence of chemical substance (yeast gene YOR108W): 1.2
level of expressed mRNA in the presence/in the absence of chemical substance (yeast gene YOR128C): 0.7
The level of expressed mRNA in the presence of chemical substance/The level of expressed mRNA in the absence of chemical substance (yeast gene YOR130C): 1.3
level of expressed mRNA in the presence/in the absence of chemical substance (yeast gene YOR142W): 1.0
level of expressed mRNA in the presence/in the absence of chemical substance (yeast gene YOR176W): 0.5
level of expressed mRNA in the presence/in the absence of chemical substance (yeast gene YOR178C): 0.9
level of expressed mRNA in the presence/in the absence of chemical substance (yeast gene YOR251C): 1.0
The level of expressed mRNA in the presence of chemical substance/The level of expressed mRNA in the absence of chemical substance (yeast gene YOR336W): 1.2
The level of expressed mRNA in the presence of chemical substance/The level of expressed mRNA in the absence of chemical substance (yeast gene YOR347C): 0.9
level of expressed mRNA in the presence/in the absence of chemical substance (yeast gene YOR348C): 0.8
The level of expressed mRNA in the presence of chemical substance/The level of expressed mRNA in the absence of chemical substance (yeast gene YPL017C): 1.4
level of expressed mRNA in the presence/in the absence of chemical substance (yeast gene YPL028W): 1.3
level of expressed mRNA in the presence/in the absence of chemical substance (yeast gene YPL057C): 0.6
level of expressed mRNA in the presence/in the absence of chemical substance (yeast gene YPL135W): 1.2
level of expressed mRNA in the presence/in the absence of chemical substance (yeast gene YPL148C): 1.0
The level of expressed mRNA in the presence of chemical substance/The level of expressed mRNA in the absence of chemical substance (yeast gene YPR026W): 1.3
level of expressed mRNA in the presence/in the absence of chemical substance (yeast gene YPR113W): 1.2
level of expressed mRNA in the presence/in the absence of chemical substance (yeast gene YPR165W): 1.0
The level of expressed mRNA in the presence of chemical substance/The level of expressed mRNA in the absence of chemical substance (yeast gene YPR167C): 1.2
level of expressed mRNA in the presence/in the absence of chemical substance (yeast gene YPR183W): 1.2
